Test results reported in patent US20250171495A1, “MUTLI-TARGETED SERINE PROTEASE INHIBITORS FOR TREATMENT OF CANCER AND VIRAL INFECTION” (Washington University, priority 2023, published 2025).
Like-named read-outs stand apart in the source and are kept apart here.

How the values were obtained:
Assay type in all cases: biochemical
[1] = target: T1, hepsin (Homo sapiens, UniProt P05981); assay: Fluorogenic kinetic enzyme inhibitor assay, hepsin
T1 construct: purchased R&D Systems 4776-SE-010

[2] = target: T2, HGFA (Homo sapiens, UniProt Q04756); assay: Fluorogenic kinetic enzyme inhibitor assay, HGFA
T2 construct: purchased R&D Systems 1514-SE-010
T2 sequence (Q04756 408-655 limits assumed): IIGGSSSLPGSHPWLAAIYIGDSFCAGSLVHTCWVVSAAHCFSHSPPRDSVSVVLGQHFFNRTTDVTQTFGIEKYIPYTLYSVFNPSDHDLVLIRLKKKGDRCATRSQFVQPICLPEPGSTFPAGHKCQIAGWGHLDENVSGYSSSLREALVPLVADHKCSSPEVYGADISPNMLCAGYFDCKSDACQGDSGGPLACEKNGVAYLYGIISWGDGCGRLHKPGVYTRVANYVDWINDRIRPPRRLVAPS
T2 sequence (Q04756 373-407 partner limits assumed): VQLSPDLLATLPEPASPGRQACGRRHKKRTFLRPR

[3] = target: T3, matriptase (Homo sapiens, UniProt Q9Y5Y6); assay: Fluorogenic kinetic enzyme inhibitor assay, matriptase
T3 construct: purchased R&D Systems 3946-SEB-010
T3 sequence (Q9Y5Y6 615-855 limits assumed): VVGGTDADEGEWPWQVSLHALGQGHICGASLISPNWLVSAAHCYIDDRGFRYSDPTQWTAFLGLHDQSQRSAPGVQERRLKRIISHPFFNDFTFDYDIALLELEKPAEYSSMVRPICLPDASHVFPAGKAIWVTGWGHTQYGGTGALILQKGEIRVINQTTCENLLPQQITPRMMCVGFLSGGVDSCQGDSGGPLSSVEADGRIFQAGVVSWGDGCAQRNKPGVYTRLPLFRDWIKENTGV

[4] = target: TMPRSS2 (Homo sapiens, UniProt O15393); assay: Fluorogenic kinetic enzyme inhibitor assay, TMPRSS2; design: purchased Cusabio Technology CSB-YP023924HU; conditions: read-out: TMPRSS2 IC50
Sequence of TMPRSS2 (O15393 106-492 limits assumed): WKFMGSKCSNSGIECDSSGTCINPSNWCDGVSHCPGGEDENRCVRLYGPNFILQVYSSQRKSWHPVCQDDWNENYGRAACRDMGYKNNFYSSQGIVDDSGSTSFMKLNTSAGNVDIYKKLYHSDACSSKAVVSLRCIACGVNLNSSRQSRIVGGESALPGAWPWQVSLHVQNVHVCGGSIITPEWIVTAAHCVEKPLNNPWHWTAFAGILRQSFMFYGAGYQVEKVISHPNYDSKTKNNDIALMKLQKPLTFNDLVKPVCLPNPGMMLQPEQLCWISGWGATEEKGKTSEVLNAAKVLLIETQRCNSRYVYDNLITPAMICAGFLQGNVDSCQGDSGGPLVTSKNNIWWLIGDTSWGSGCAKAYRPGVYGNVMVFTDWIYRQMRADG

T1 sequence (P05981 163-417 limits assumed): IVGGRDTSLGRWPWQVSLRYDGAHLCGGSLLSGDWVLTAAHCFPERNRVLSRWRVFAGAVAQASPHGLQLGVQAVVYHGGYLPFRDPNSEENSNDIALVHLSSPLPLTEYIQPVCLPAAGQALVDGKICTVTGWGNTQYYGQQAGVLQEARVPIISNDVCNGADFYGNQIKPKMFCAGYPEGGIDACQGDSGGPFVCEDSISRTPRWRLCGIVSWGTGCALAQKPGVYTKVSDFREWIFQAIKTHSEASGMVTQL
T1 sequence (P05981 1-162 partner limits assumed): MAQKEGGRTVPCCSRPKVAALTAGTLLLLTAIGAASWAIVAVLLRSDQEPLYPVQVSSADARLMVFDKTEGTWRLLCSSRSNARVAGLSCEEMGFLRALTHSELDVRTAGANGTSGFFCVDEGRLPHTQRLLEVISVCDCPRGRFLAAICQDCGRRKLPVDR

CC(=O)N[C@H]1Cc2ccc(cc2)OCCCC[C@@H](C(=O)N[C@@H](CCCNC(=N)N)C(=O)c2nc3ccccc3s2)NC(=O)[C@@H](Cc2c[nH]c3ccccc23)NC1=O [8b]
IC50 ([1]; 30 min incubation, Boc-QAR-AMC at Km, read-out: Hepsin IC50): 0.54 nM
IC50 ([2]; read-out: HGFA IC50): 3.3 nM

CC(=O)N[C@@H](Cc1cncn1COCc1ccccc1)C(=O)N[C@@H](CCC(C)C)C(=O)N[C@@H](CCCNC(=N)N)C(=O)c1nc2ccccc2s1 [JH1142-2, N-[(S)-1-[(1,3-benzothiazol-2-yl)carbonyl]-4-guanidinobutyl](S)-2-[(S)-2-acetylamino-3-{1-[(benzyloxy)methyl]-5-imidazolyl}propionylamino]-5-methylhexanamide]
IC50 ([1]; read-out: Hepsin IC50): 0.93 nM
IC50 ([3]; read-out: Matriptase IC50): 1.16 nM
IC50 ([2]; read-out: HGFA IC50): 131 nM

N=C(N)NCCC[C@H](NC(=O)[C@H](CCC(=O)OCc1ccccc1)NC(=O)OCc1ccccc1)C(=O)c1nc2ccccc2s1 [MF1169, benzyl (S)-4-[benzyl(oxycarbonylamino)]-4-[N-(S)-1-[(1,3-benzothiazol-2-yl)carbonyl]-4-guanidinobutylcarbamoyl] butyrate]
IC50 ([1]; read-out: Hepsin IC50): > 20000 nM
IC50 ([3]; read-out: Matriptase IC50): 290 nM
IC50 [4]: 75 nM

N=C(N)NCCC[C@H](NC(=O)[C@@H](NC(=O)OCc1ccccc1)c1cccs1)C(=O)c1nc2ccccc2s1 [MF1177, (R)-[N-(S)-1-[(1,3-benzothiazol-2-yl)carbonyl]-4-guanidinobutylcarbamoyl] (2-thienyl)methyl-phenylmethanecarbamate]
IC50 ([1]; read-out: Hepsin IC50): 6.07 nM
IC50 ([3]; read-out: Matriptase IC50): 37.6 nM
IC50 [4]: 0.211 nM

N=C(N)NCCC[C@H](NC(=O)[C@H](Cc1cccs1)NC(=O)OCC1c2ccccc2-c2ccccc21)C(=O)c1nc2ccccc2s1 [MF1184, (S)-1-[N-(S)-1-[(1,3-benzothiazol-2-yl)carbonyl]-4-guanidinobutylcarbamoyl]-2-(2-thienyl)ethyl (9H-fluoren-9-yl)methanecarbamate]
IC50 ([1]; read-out: Hepsin IC50): 118 nM
IC50 ([3]; read-out: Matriptase IC50): 58.7 nM
IC50 [4]: 0.466 nM

CC(=O)N[C@@H](CO)C(=O)NCc1cccc(CC(=O)N[C@@H](CC(C)C)C(=O)N[C@H](CCCNC(=N)N)C(=O)c2nc3ccccc3s2)c1 [MM1132-1, N-[(R)-1-[(1,3-benzothiazol-2-yl)carbonyl]-4-guanidinobutyl](S)-2-{[(m-{[(S)-2-acetylamino-3-hydroxypropionylamino]methyl}phenyl)methyl]carbonylamino}-4-methylvaleramide]
IC50 ([1]; read-out: Hepsin IC50): 1.91 nM
IC50 ([3]; read-out: Matriptase IC50): 419 nM
IC50 ([2]; read-out: HGFA IC50): 3250 nM

CCC(C)[C@H](NC(C)=O)C(=O)N[C@@H](CCC(N)=O)C(=O)N[C@H](C(=O)N[C@@H](CCCNC(=N)N)C(=O)c1nc2ccccc2s1)C(C)C (stereo partly drawn) [MM3180-2, N-[(S)-2-methyl-1-[N-(S)-1-[(1,3-benzothiazol-2-yl)carbonyl]-4-guanidinobutylcarbamoyl]propyl](S)-2-[(2S)-2-acetylamino-3-methylvalerylamino]glutaramide]
IC50 ([1]; read-out: Hepsin IC50): 0.106 nM
IC50 [3]: 0.761 nM
IC50 ([2]; read-out: HGFA IC50): 799 nM
IC50 [4]: 0.031 nM

CC(=O)N1CCC[C@H]1C(=O)N[C@@H](CO)C(=O)N[C@@H](CCCCN)C(=O)N[C@@H](CCCNC(=N)N)C(=O)c1nc2ccccc2s1 [MM3194A, N-[(S)-2-hydroxy-1-[N-(S)-5-amino-1-[N-(S)-1-[(1,3-benzothiazol-2-yl)carbonyl]-4-guanidinobutylcarbamoyl]pentylcarbamoy1]ethyl]-(S)-1-acetyl-2-pyrrolidinecarboxamide]
IC50 [1]: 2.43 nM
IC50 [3]: 0.293 nM
IC50 [2]: > 20000 nM
IC50 [4]: 0.286 nM

CC(=O)N1CCC[C@H]1C(=O)N[C@@H](CO)C(=O)N[C@@H](CCCCN)C(=O)N[C@H](CCCNC(=N)N)C(=O)c1nc2ccccc2s1 [MM3194C, N-[(S)-2-hydroxy-1-[N-(S)-5-amino-1-[N-(R)-1-[(1,3-benzothiazol-2-yl)carbonyl]-4-guanidinobutylcarbamoyl]pentylcarbamoy1]ethyl]-(S)-1-acetyl-2-pyrrolidinecarboxamide]
IC50 ([1]; read-out: Hepsin IC50): 24.9 nM
IC50 [3]: 5.72 nM
IC50 ([2]; read-out: HGFA IC50): > 20000 nM

CCC(C)[C@H](NC(C)=O)C(=O)N[C@@H](CO)C(=O)N[C@@H](Cc1ccccc1)C(=O)N[C@H](CCCNC(=N)N)C(=O)c1nc2ccccc2s1 (stereo partly drawn) [MM4009-1, N-[(S)-2-hydroxy-1-[N-(S)-1-[N-(R)-1-[(1,3-benzothiazol-2-yl)carbonyl]-4-guanidinobutylcarbamoyl]-2-phenylethylcarbamoyl]ethyl](2S)-2-acetylamino-3-methylvaleramide]
IC50 ([1]; read-out: Hepsin IC50): 2.08 nM
IC50 [3]: 18.4 nM
IC50 ([2]; read-out: HGFA IC50): 1340 nM

CCC(C)[C@H](NC(C)=O)C(=O)N[C@@H](CO)C(=O)N[C@@H](Cc1ccccc1)C(=O)N[C@@H](CCCNC(=N)N)C(=O)c1nc2ccccc2s1 (stereo partly drawn) [MM4009-2, N-[(S)-2-hydroxy-1-[N-(S)-1-[N-(S)-1-[(1,3-benzothiazol-2-yl)carbonyl]-4-guanidinobutylcarbamoyl]-2-phenylethylcarbamoyl]ethyl] (2S)-2-acetylamino-3-methylvaleramide]
IC50 ([1]; read-out: Hepsin IC50): 1.05 nM
IC50 [3]: 2.17 nM
IC50 ([2]; read-out: HGFA IC50): 126 nM
IC50 [4]: 0.067 nM

CCC(C)[C@H](NC(C)=O)C(=O)N[C@@H](CCSC)C(=O)N[C@@H](Cc1ccccc1)C(=O)N[C@H](CCCNC(=N)N)C(=O)c1nc2ccccc2s1 (stereo partly drawn) [MM4027-1, N-[(S)-3-(methylthio)-1-[N-(S)-1-[N-(R)-1-[(1,3-benzothiazol-2-yl)carbonyl]-4-guanidinobutylcarbamoyl]-2-phenylethylcarbamoyl]propyl](2S)-2-acetylamino-3-methylvaleramide]
IC50 ([2]; read-out: HGFA IC50): 234 nM
IC50 [4]: 5.63 nM

CCC(C)[C@H](NC(C)=O)C(=O)N[C@@H](CCSC)C(=O)N[C@@H](Cc1ccccc1)C(=O)N[C@@H](CCCNC(=N)N)C(=O)c1nc2ccccc2s1 (stereo partly drawn) [MM4027-2, N-[(S)-3-(methylthio)-1-[N-(S)-1-[N-(S)-1-[(1,3-benzothiazol-2-yl)carbonyl]-4-guanidinobutylcarbamoyl]-2-phenylethylcarbamoyl]propyl](2S)-2-acetylamino-3-methylvaleramide]
IC50 ([1]; read-out: Hepsin IC50): 1.31 nM
IC50 [3]: 0.51 nM
IC50 [4]: 2.96 nM

CCC(C)[C@H](NC(C)=O)C(=O)N[C@H](C(=O)N[C@@H](Cc1ccccc1)C(=O)N[C@@H](CCCNC(=N)N)C(=O)c1nc2ccccc2s1)C(C)O (stereo partly drawn) [MM4028-2, N-[(1S)-2-hydroxy-1-[N-(S)-1-[N-(S)-1-[(1,3-benzothiazol-2-yl)carbonyl]-4-guanidinobutylcarbamoyl]-2-phenylethylcarbamoyl]propyl](2S)-2-acetylamino-3-methylvaleramide]
IC50 ([1]; read-out: Hepsin IC50): 0.863 nM
IC50 [3]: 4.71 nM
IC50 ([2]; read-out: HGFA IC50): 182 nM
IC50 [4]: 0.064 nM

CC(=O)N[C@@H](CO)C(=O)N[C@@H](Cc1cncn1COCc1ccccc1)C(=O)N[C@@H](CC(C)C)C(=O)N[C@H](CCCNC(=N)N)C(=O)c1nc2ccccc2s1 [MM4036-1, N-[(R)-1-[(1,3-benzothiazol-2-yl)carbonyl]-4-guanidinobutyl](S)-2-[(S)-2-[(S)-2-acetylamino-3-hydroxypropionylamino]-3-{1-[(benzyloxy)methyl]-5-imidazolyl}propionylamino]-4-methylvaleramide]
IC50 ([1]; read-out: Hepsin IC50): 1.47 nM
IC50 [3]: 139 nM
IC50 ([2]; read-out: HGFA IC50): 1550 nM
IC50 [4]: 102 nM

CC(=O)N[C@@H](CO)C(=O)N[C@@H](Cc1cncn1COCc1ccccc1)C(=O)N[C@@H](CC(C)C)C(=O)N[C@@H](CCCNC(=N)N)C(=O)c1nc2ccccc2s1 [MM4036-2, N-[(S)-1-[(1,3-benzothiazol-2-yl)carbonyl]-4-guanidinobutyl](S)-2-[(S)-2-[(S)-2-acetylamino-3-hydroxypropionylamino]-3-{1-[(benzyloxy)methyl]-5-imidazolyl}propionylamino]-4-methylvaleramide]
IC50 ([1]; read-out: Hepsin IC50): 2.81 nM
IC50 [3]: 77.7 nM
IC50 ([2]; read-out: HGFA IC50): 1070 nM

CCC(C)[C@H](NC(C)=O)C(=O)N[C@H](Cc1cc2ccccc2[nH]1)C(=O)N[C@@H](Cc1ccccc1)C(=O)N[C@@H](CCCNC(=N)N)C(=O)c1nc2ccccc2s1 (stereo partly drawn) [MM4038, N-[(R)-2-(2-indolyl)-1-[N-(S)-1-[N-(S)-1-[(1,3-benzothiazol-2-yl)carbonyl]-4-guanidinobutylcarbamoyl]-2-phenylethylcarbamoy1]ethyl](2S)-2-acetylamino-3-methylvaleramide]
IC50 ([1]; read-out: Hepsin IC50): 12.2 nM
IC50 ([2]; read-out: HGFA IC50): 66.2 nM
IC50 [4]: 0.04 nM

CC(=O)N[C@H]1Cc2ccc(cc2)OCCCC[C@@H](C(=O)N[C@H](CCCNC(=N)N)C(=O)c2nc3ccccc3s2)NC(=O)[C@H](Cc2ccccc2)NC1=O [VD4111A, N-[(R)-1-[(1,3-benzothiazol-2-yl)carbonyl]-4-guanidinobutyl]-(7S,10S,13S)-13-acetylamino-10-benzyl-9,12-dioxo-2-oxa-8,11-diazabicyclo[13.2.2]nonadeca-1(17),15,18-triene-7-carboxamide]
IC50 [1]: 12.7 nM
IC50 [3]: 330 nM
IC50 [2]: 3280 nM

N=C(N)NCCC[C@H](NC(=O)[C@H](Cc1ccccc1)NC(=O)[C@H](CCC(N)=O)NC(=O)OCc1ccccc1)C(=O)c1nc2ccccc2s1 [ZFH9141]
IC50 ([1]; read-out: Hepsin IC50): 1.25 nM
IC50 ([3]; read-out: Matriptase IC50): 1.02 nM
IC50 [4]: 0.418 nM
